# Tests used:
# [1] = tested on: serum biomarkers of hepatotoxicity; experiment: Hepatotoxicity serum biomarker study in dogs, oral dose; assay type: in vivo, dog; details: dogs, 50 mg/kg PO
# Method: The compound of Formula (Ia) was orally dosed to […] at dose levels of 5, 15 or 50 mg/kg using 30% Sulfobutylether β-cyclodextrin as the vehicle for assessment of safety as measured via serum chemistry biomarkers of hepatotoxicity or bile duct injury FIG. 5A, showing measurements of alanine aminotranferease [ALT], aspartate aminotranferease [AST], alkaline phosphatase [ALP] and gamma-glutamyl transferase [GGT] in the dogs at each dose level (each bar represents a measurement from 1 dog in the study). […] For example, the ALT levels were elevated up to about 60-fold in male dogs and up to about 130-fold in female beagle dogs following a single PO dose of 50 mg/kg.
# hTRPV4 = hTRPV4 (Homo sapiens, UniProt Q9HBA0); experiment: Patch clamp selectivity, hTRPV4 (block); assay type: cell-based; details: hTRPV4 vs TRPA1
# Method: (§1) Data for TRPA1 inhibition and the selectivity of TRPA1 inhibition was obtained by this method for the compound of Formula (Ia) and included in Table 1 and Table 2. All currents were recorded in whole-cell configuration using EPC-9 and EPC-10 amplifiers and Patchmaster software (HEKA). […] The standard pipette solution consisted of 140 mM CsAsp, 10 mM EGTA, 10 mM HEPES, 2.27 mM MgCl2, 1.91 mM CaCl2, 4 mM MgATP, and 0.1-0.3 mM Na2GTP, with pH adjusted to 7.2 with CsOH. In addition, a solution containing 145 mM CsCl, 10 mM HEPES, 10 mM EGTA and 1 mM MgCl2 (pH 7.2 adjusted with CsOH) can be used. The standard bath solution contained 150 mM NaCl, 10 mM HEPES, 10 mM glucose, 4.5 mM KCl, 1 mM EGTA, 3 mM MgCl2, with pH adjusted to 7.4 with NaOH. In some instances, 2 mM CaCl2 was added in place of EGTA and the concentration of MgCl2 was reduced to 1 mM.
# (§2) Data were collected either by continuous recordings at −60 mV or by applying voltage ramps from a holding potential of 0 mV every 4 s. […] Inward and outward currents were analyzed from the ramps at −80 and 80 mV, respectively. […]
# (§3) Solutions were switched using a gravity-fed continuous focal perfusion system. […] Temperatures were confirmed using a thermistor (Warner Instruments, TA-29), with temperatures at the recorded cell estimated to be within +/−2° C. of those reported. […]
# hTRPV6 = biological target: T1, hTRPV6 (Homo sapiens, UniProt Q9H1D0); experiment: Patch clamp selectivity, hTRPV6; assay type: cell-based; details: hTRPV6 vs TRPA1
# T1 sequence (Q9H1D0 1-765): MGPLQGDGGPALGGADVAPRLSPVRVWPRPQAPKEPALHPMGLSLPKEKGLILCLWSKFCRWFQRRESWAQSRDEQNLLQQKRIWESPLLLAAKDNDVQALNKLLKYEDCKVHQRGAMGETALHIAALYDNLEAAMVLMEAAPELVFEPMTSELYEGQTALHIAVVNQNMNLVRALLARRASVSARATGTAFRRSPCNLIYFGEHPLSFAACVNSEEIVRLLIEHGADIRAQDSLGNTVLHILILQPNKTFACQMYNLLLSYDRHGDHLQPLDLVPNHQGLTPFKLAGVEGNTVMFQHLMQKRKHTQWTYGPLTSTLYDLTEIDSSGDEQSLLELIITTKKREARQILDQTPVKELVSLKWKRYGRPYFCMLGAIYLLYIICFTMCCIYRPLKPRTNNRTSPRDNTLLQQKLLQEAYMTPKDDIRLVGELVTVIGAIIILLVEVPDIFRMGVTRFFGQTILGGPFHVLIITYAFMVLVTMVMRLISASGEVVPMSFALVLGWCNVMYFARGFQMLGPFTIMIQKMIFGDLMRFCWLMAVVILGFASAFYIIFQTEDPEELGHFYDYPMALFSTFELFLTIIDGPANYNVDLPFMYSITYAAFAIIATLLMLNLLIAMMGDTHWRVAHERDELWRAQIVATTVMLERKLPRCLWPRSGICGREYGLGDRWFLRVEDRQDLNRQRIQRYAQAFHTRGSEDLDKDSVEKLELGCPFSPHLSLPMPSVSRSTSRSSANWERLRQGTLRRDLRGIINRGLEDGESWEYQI
# Method: as §1, §2, §3
# hTRPV4, sequence (Q9HBA0 whole entry): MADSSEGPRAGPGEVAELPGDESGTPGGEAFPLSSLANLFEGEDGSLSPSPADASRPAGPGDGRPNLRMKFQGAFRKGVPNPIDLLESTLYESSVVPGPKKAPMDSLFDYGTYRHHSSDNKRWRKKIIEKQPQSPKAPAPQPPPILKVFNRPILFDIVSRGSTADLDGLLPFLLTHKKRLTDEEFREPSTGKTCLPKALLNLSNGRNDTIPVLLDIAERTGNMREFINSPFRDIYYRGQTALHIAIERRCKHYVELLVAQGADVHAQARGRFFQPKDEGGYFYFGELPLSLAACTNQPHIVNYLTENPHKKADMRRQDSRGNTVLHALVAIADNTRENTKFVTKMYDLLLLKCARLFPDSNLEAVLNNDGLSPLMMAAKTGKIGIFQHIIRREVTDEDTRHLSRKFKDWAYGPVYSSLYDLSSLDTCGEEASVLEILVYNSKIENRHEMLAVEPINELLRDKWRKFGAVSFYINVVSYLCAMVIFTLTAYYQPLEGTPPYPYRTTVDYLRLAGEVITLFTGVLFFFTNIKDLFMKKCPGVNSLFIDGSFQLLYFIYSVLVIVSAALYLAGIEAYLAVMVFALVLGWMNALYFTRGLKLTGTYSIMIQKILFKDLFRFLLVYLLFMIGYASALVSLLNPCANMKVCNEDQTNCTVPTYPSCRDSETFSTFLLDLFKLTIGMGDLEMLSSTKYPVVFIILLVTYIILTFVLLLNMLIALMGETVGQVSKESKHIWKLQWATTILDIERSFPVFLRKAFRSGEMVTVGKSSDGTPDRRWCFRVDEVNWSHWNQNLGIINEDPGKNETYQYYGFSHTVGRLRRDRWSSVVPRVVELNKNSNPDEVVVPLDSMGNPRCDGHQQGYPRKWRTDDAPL
smiles,measurement,setting,value
C[C@H]1CCCN1c1ncc(-c2cccc(NC(=O)Cn3cnc4c3c(=O)n(C)c(=O)n4C)n2)cn1 [Formula (Ia)],"serum biomarkers of hepatotoxicity (ALT, AST, ALP, GGT)",[1],did not elevate serum biomarkers of hepatotoxicity or acute phase response
same,Fold Selectivity Compared to TRPA1,hTRPV4,~170 Fold
same,Fold Selectivity Compared to TRPA1,hTRPV6,~370 Fold

# — US9193729B2, “Inhibiting transient receptor potential ion channel TRPA1” (Cubist Pharmaceuticals, Inc., priority 2011, dated 2015)
